Source: PubChem BioAssay AID1850 (Southern Research Specialized Biocontainment Screening …, 2009)
“And” between values parts separate entries of the source, which are not always exact repeats. Identical values can stand only once.

Test system: Salmonella Typhi PhoP-promoter GFP reporter, fluorescence, 4 h
Experiment: Inhibition of PhoP regulon, Salmonella typhi GFP reporter cells, confirmation, 4 h (AID 1850)

C#CCOCCOCCOCCNc1nc(N2CCN(C(=O)[C@H]([C@@H](C)CC)n3cc([C@@H](N)Cc4ccc(O)cc4)nn3)CC2)nc(N2CCN(C(=O)[C@H](Cc3cc4ccccc4[nH]3)n3cc([C@@H](N)CC(C)C)nn3)CC2)n1
IC50: 102 µM

CN1CCN(C2=Cc3ccccc3Sc3cc(F)c(Cl)cc32)CC1
IC50: 32.8 µM

c1ccc(CNc2nc(N3CCN(Cc4ccccc4)CC3)nc3ccccc23)cc1
IC50: 18.2 µM

CCCCOc1ccc(C(=O)OC2CC(C)N(C)CC2C)cc1 (configuration not stated)
IC50: 86.3 µM

CCCCCCCCCCOC(=O)Cn1c(COc2cccc(C)c2)[n+](C)c2ccccc21
IC50: 12.4 µM

N=c1c2c(n(Cc3ccc(Cl)cc3)c3c1CCC3)CCC2
IC50: 80.3 µM

COc1ccc(CCN2CCC(Nc3nc4ccccc4n3Cc3ccc(F)cc3)CC2)cc1
IC50: 37.7 µM

O=C(CCc1ccccc1)NNC(=S)NC(=O)c1ccccc1
IC50: 118 µM

Cc1nc2c(=O)n(C)c(=O)nc-2n(C)n1
IC50: 1.29 µM

Nc1nc(Nc2ccc(Cl)cc2)nc2ccccc12
IC50: 15.3 µM

CCCCCCCCCCOC(=O)Cn1c(COc2ccccc2OC)[n+](C)c2ccccc21
IC50: 10.2 µM

Nc1nc2ccccc2n1Cc1ccc(Cl)c(Cl)c1
IC50: 79.7 µM

Cc1cc(C)c2nc(C)cc(N/N=C/c3ccc(O)cc3)c2c1
IC50: 36.4 µM

CC(C(=O)c1ccc(-c2ccccc2)cc1)[n+]1cccc(NC(=O)c2ccccc2)c1 (configuration not stated)
IC50: 20.4 µM

CCCCn1c(=N)n(CC(=O)c2ccc(Br)s2)c2ccccc21
IC50: 51.4 µM

CCCCCC(=O)NC(=S)NNC(=O)CC
IC50: 133 µM

COc1ccc(Nc2cc(C)nc(NCc3ccccc3)n2)cc1
IC50: 74.1 µM

CN(C)CC/C=C1\c2ccccc2Sc2ccc(Cl)cc21
IC50: 72.2 µM

CCN1/C(=C/C=C/C=C/c2sc3ccccc3[n+]2CC)Sc2ccccc21
IC50: 13.2 µM

O=C(Nc1nc(-c2ccccn2)cs1)c1ccc(Br)s1
IC50: 23.9 µM

O=C(NC(=S)NNC(=O)c1ccco1)c1ccc(Br)cc1
IC50: 88.4 µM

CCCCCCCC(=O)N/N=C/c1ccc([N+](=O)[O-])o1
IC50: 26.7 µM

NC1=NC[C@H](c2ccccc2)N1CCCCC1CCCCC1
IC50: 34.8 µM

CCc1ccc(NC(=O)Nc2ccncc2)cc1
IC50: 71.3 µM

Oc1cccc(Nc2nc(NCC3CCCO3)c3ccccc3n2)c1 (configuration not stated)
IC50: 19.2 µM

CCn1cc(C(=O)NCC(C)C)c(=O)c2cc(F)c(N3CCN(C)CC3)cc21
IC50: 14.9 µM

Clc1ccc2[nH]c3c(c2c1)CCc1cn[nH]c1-3
IC50: 79.6 µM

Cc1nonc1C(=O)N/N=C/c1ccc([N+](=O)[O-])o1
IC50: 37.5 µM

CN1CCN(C2Cc3cc(Cl)ccc3Sc3cc(F)ccc32)CC1 (configuration not stated)
IC50: 35 µM

O=C(C[n+]1ccc(-c2ccccc2)cc1)Nc1ccc([N+](=O)[O-])cc1
IC50: 40.5 µM

Cc1cc2oc(=O)cc(CN3CCN(C/C=C/c4ccccc4)CC3)c2cc1O
IC50: 80.5 µM

COC(=O)c1sccc1NC(=S)NCc1ccc(Cl)cc1
IC50: 36.9 µM

c1ccc(Nc2nc(NCC3CCCO3)c3ccccc3n2)cc1 (configuration not stated)
IC50: 5 µM

O=C(NC(=S)NNC(=O)c1cnccn1)c1ccc(F)cc1
IC50: 36.1 µM

CNCCCCOc1ccc(C(C)(C)C)cc1Cl
IC50: 77 µM

CN1CCN(c2ccc(NC(=O)c3ccc(-c4ccc(Br)cc4)o3)cc2)CC1
IC50: 28.9 µM

CN1CCN(CCCN2c3ccccc3Sc3ccc(Cl)cc32)CC1
IC50: 56 µM and 34.7 µM

Nc1cccc2c(=O)c3ccccc3[nH]c12
IC50: 21.5 µM

CCCCn1c(NS(=O)(=O)c2ccccc2)c(C(=O)OCC)c2nc3ccccc3nc21
IC50: 35 µM

O=C1OCC(CO)(CO)N=C1NNc1ccc(Cl)c(Cl)c1
IC50: 47.9 µM

O=C(Cc1ccc(Br)cc1)c1ccc(O)cc1O
IC50: 119 µM

Cc1cc(OCCCCCN2CCCC2)ccc1Cl
IC50: 122 µM

Cc1c(N=Cc2cc(Br)cc(Br)c2O)cccc1C(=O)O
IC50: 40.9 µM

CC(C)(c1ccccc1)c1ccc(OCCCNCCO)cc1
IC50: 72 µM

O=C(C[n+]1cc(-c2ccc(Cl)c(Cl)c2)n2c1CCC2)N1c2ccccc2Sc2ccccc21
IC50: 26.9 µM

Cc1nc(N)nc(N)c1CCCc1ccc(Cl)c(Cl)c1
IC50: 35.9 µM

O=C(CN1CC[n+]2c(-c3cccs3)csc21)c1ccc(-c2ccccc2)cc1
IC50: 26.4 µM

O=C(Cc1cccs1)N/N=C\c1ccc([N+](=O)[O-])s1
IC50: 35 µM

O=c1c(O)cccc2cc(O)c(O)c(O)c12
IC50: 25.8 µM

CC[C@H]1OC(=O)[C@H](C)[C@@H](O[C@H]2C[C@@](C)(OC)[C@@H](O)[C@H](C)O2)[C@H](C)[C@@H](O[C@@H]2O[C@H](C)C[C@H](N(C)C)[C@H]2O)[C@](C)(O)C[C@@H](C)[C@@H]2N[C@@H](COCCOC)O[C@H]([C@H]2C)[C@]1(C)O
IC50: 8.02 µM

CCCCCCCCCCCCCCCC[n+]1ccc(C(N)=O)cc1
IC50: 10.5 µM

Nc1c2ccccc2nc2ccccc12
IC50: 36.8 µM

Clc1ccc(CN2CCc3c([nH]c4ccccc34)C2)cc1Cl
IC50: 36.1 µM

CCOC(=O)C1=C(C(C)=O)C(c2cccnc2)C(C#N)=C(N)O1 (configuration not stated)
IC50: 91.5 µM

CN1CCN(c2cc3c(cc2F)c(=O)c(C(=O)O)cn3CCF)CC1
IC50: 0.31 µM

O=[N+]([O-])c1cc(/C=N/Nc2nc3ccccc3[nH]2)c(O)cc1O
IC50: 19.3 µM

O=C(CSc1ccccn1)N/N=C/c1cc([N+](=O)[O-])ccc1O
IC50: 76.1 µM

Cc1ccc2c(c1)N/C(=C(\C=C(/Cl)[N+](=O)[O-])[N+](=O)[O-])N2
IC50: 99.7 µM

O=c1cc(-c2ccc(O)cc2)oc2c(O)c(O)c(O)c(O)c12
IC50: 35.6 µM

O=C1c2ccccc2NC(c2ccc(-c3ccc(Br)cc3)o2)N1O (configuration not stated)
IC50: 35.8 µM

Clc1ccc(CNCc2cccs2)cc1Cl
IC50: 32 µM

CC[n+]1c(/C=C/N(C)c2ccccc2)n(-c2ccccc2)c2ccc(-c3nc4ccccc4s3)cc21
IC50: 5.9 µM

COc1cc(C(=O)O/N=C2\C=CC(=O)C(C)=C2)cc(OC)c1OC
IC50: 121 µM

CC(NCc1ccccc1O)C12CC3CC(CC(C3)C1)C2 (configuration not stated)
IC50: 34.2 µM

O=C(N/N=C/c1ccccc1O)c1ccncc1
IC50: 35.9 µM

CN(C)c1ccc(O)c2c1CC1CC3C(N(C)C)C(=O)C(C(N)=O)=C(O)[C@@]3(O)C(=O)C1=C2O (some centres not stated)
IC50: 8.82 µM

CCOC(=O)N1CCN(CCC(=O)c2ccc(Br)cc2)CC1
IC50: 94.5 µM

Cc1ccc(-c2c[n+](Cc3ccc(Cl)c(Cl)c3)c3n2CCC3)cc1
IC50: 33.3 µM

CCCCCCCCCCn1c2c(c(=N)c3c1CCC3)CCC2
IC50: 14.7 µM

Cc1ccc(C(=O)N/C(=C\c2ccc(-c3ccc(Cl)cc3)o2)C(=O)NCCCN(C)C)cc1
IC50: 37.6 µM

Cc1cc([N+](=O)[O-])nn1CC(=O)N/N=C/c1ccccc1O
IC50: 47.1 µM

Cc1ccc(-c2csc(N=C(N)N)n2)c(C)c1
IC50: 50.1 µM

O=C(Cn1nc(CNc2ccc(Cl)cc2)[n+]2c1CCCCC2)c1ccc(Br)cc1
IC50: 51.4 µM

CN1CCC(=C2c3ccccc3C=Cc3ccccc32)CC1
IC50: 105 µM

Cc1nonc1C(=O)N/N=C/c1ccc(O)cc1O
IC50: 33.4 µM

CN(O)/C=c1/ccc2c(n1)C(=O)C=CC=2
IC50: 34.8 µM

COC12C(COC(N)=O)C3=C(C(=O)C(C)=C(N)C3=O)N1CC1C2N1C (configuration not stated)
IC50: 8.18 µM

c1ccc(CN2CCC(Nc3nc(-c4ccccc4)nc4ccccc34)CC2)cc1
IC50: 35 µM

CCOc1ccc(-c2cc(C)[n+](CCN(CC)CC)c(-c3ccc(OCC)cc3)c2)cc1
IC50: 37.5 µM

CNC[C@@H](Cc1ccccc1)NC[C@@H](CC1CCCCC1)NCCCc1ccccc1
IC50: 38.2 µM

CCCCOc1ccc(NC2=NC3(CCCC3)N=C(N)N2)cc1
IC50: 20.8 µM

COc1ccc(C(=O)NC(=S)NNC(=O)c2cnccn2)cc1
IC50: 92.4 µM
